Measurements as given in ChEMBL document CHEMBL3272150, “Studies on antianaphylactic agents. 5. Synthesis of 3-(1H-tetrazol-5-yl)chromones, a new series of antiallergic substances” (J Med Chem, 1977).
Activity calls are given as the source filed them. The calls are words filed in the database; no cut-off is given here.

Legend:
[1] = test system: Rattus norvegicus; experiment: Antiallergic activity in po dosed Sprague-Dawley rat assessed as inhibition of egg albumin-induced passive cutaneous anaphylaxis administered 5 mins prior to egg albumin challenge measured after 30 mins by Evan blue dye leakage assay; assay type: functional; settings: read-out: ID50 (the source's name)
[2] = test system: Rattus norvegicus; experiment: Antiallergic activity in iv dosed Sprague-Dawley rat assessed as inhibition of egg albumin-induced passive cutaneous anaphylaxis administered immediately prior to egg albumin challenge measured after 30 mins by Evan blue dye leakage assay relative to disodium cromoglycate; assay type: functional
[3] = test system: Rattus norvegicus; experiment: Antiallergic activity in Sprague-Dawley rat assessed as inhibition of egg albumin-induced passive cutaneous anaphylaxis up to 20 mg/kg, iv administered immediately prior to egg albumin challenge measured after 30 mins by Evan blue dye leakage assay; assay type: functional, organism-based; set-up: dose 20 mg/kg
[4] = Dissociation constant, pKa of the compound; assay type: physicochemical

Compound | fold change (FC) [2] | other results
O=c1c(-c2nnn[nH]2)coc2c1ccc1ccccc12 | 8.3 | ED50 [1]: 7.4 mg/kg
COc1ccc2occ(-c3nnn[nH]3)c(=O)c2c1 | 2.2 | ED50 [1]: 7 mg/kg
CCCCc1ccc2occ(/C=C/c3nnn[nH]3)c(=O)c2c1 | 0.07 | –
O=c1c(-c2nnn[nH]2)coc2ccc(O)cc12 | 4.5 | –
O=c1cc(-c2nnn[nH]2)oc2ccccc12 | 1.4 | –
O=C([O-])c1cc(=O)c2c(OCC(O)COc3cccc4oc(C(=O)[O-])cc(=O)c34)cccc2o1.[Na+].[Na+] [CROMOLYN SODIUM] | – | ED50 [1]: > 100 mg/kg
Cc1cc(C)c2occ(-c3nnn[nH]3)c(=O)c2c1 | 11.6 | ED50 [1]: 1.25 mg/kg
O=c1c(-c2nnn[nH]2)coc2ccccc12 | 3.5 | ED50 [1]: 5.3 mg/kg
CCCCCCc1ccc2occ(-c3nnn[nH]3)c(=O)c2c1 | 0.6 | –
CCCCc1ccc2occ(-c3nnn[nH]3)c(=O)c2c1 | 1.8 | –
O=c1c(-c2nnn[nH]2)coc2ccc(C3CCCCC3)cc12 | 0.5 | –
O=c1c(-c2nnn[nH]2)coc2ccc(Cl)cc12 | 4 | –
Cc1oc2ccccc2c(=O)c1-c1nnn[nH]1 | 0.1 | –
CC(C)c1ccc2occ(-c3nnn[nH]3)c(=O)c2c1 | 3.4 | ED50 [1]: 17 mg/kg
CC(C)(C)n1nnc(-c2coc3ccccc3c2=O)n1 | – | inhibition [3]: inactive
N#Cc1coc2ccccc2c1=O | – | pKa [4]: 5.85

Compound | fold change (FC) [2] | other results
Cc1ccc2occ(-c3nnn[nH]3)c(=O)c2c1 | 2.4 | ED50 [1]: 10 mg/kg
CCCCOc1ccc2c(=O)c(-c3nnn[nH]3)coc2c1 | 0.9 | –
CN(C)c1ccc2occ(-c3nnn[nH]3)c(=O)c2c1 | 2.3 | –
CCCc1ccc2occ(-c3nnn[nH]3)c(=O)c2c1 | 3.4 | –
O=c1c(/C=C/c2nnn[nH]2)coc2ccccc12 | 0.3 | –
O=C(O)c1coc2ccccc2c1=O | – | pKa [4]: 8.85
Cc1nnc(-c2coc3ccccc3c2=O)o1 | – | inhibition [3]: inactive
O=c1c(-c2nnn[nH]2)coc2cc(O)c(O)cc12 | 1.8 | –
O=c1c(-c2nnn[nH]2)coc2ccc([N+](=O)[O-])cc12 | 4 | –
O=C(Cc1nnn[nH]1)c1ccccc1O | 0.35 | –
CCc1ccc2occ(-c3nnn[nH]3)c(=O)c2c1 | 4 | ED50 [1]: 6.9 mg/kg
Cc1oc2ccccc2c(=O)c1Cc1nnn[nH]1 | – | inhibition [3]: inactive
O=c1c(-c2nnn[nH]2)coc2cc(O)ccc12 | 1.1 | –
O=c1c(-c2nnn[nH]2)coc2ccc3ccccc3c12 | 5 | ED50 [1]: 8.5 mg/kg
CCOC(=O)c1ccc2occ(-c3nnn[nH]3)c(=O)c2c1 | 2.9 | –
O=c1c(CCc2nnn[nH]2)coc2ccccc12 | 0.07 | –
